Values quoted from earlier work, collected in patent publication US20070093966A1, “Drug candidate selection by hydrogen exchange characterization of ligand-induced receptor conformation” (ExSAR CORPORATION, priority 2004, published 2007).

System: endogenous gene CAP in 3T3-L1 adipocytes
Conditions: Camp et al.

Cc1c(C)c2c(c(C)c1O)CCC(C)(COc1ccc(CC3SC(=O)NC3=O)cc1)O2 (stereo not shown) [troglitazone]
agonist profile, induction of the endogenous gene CAP: full agonist
